Data: ChEMBL document CHEMBL1201862, “PubChem BioAssay data set” (2004)
Calls of active or inactive are those of the source.

Key:
Assay type in all cases: functional
[1] = molecular target: Insulin-like growth factor 1 receptor (Homo sapiens, UniProt P08069); assay: Navigating the Kinome. Panel member name: IGF1R
[2] = molecular target: Protein kinase C zeta type (Homo sapiens, UniProt Q05513);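 note: measured as one member of a broad kinase profiling panel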
[3] = molecular target: Glycogen synthase kinase-3 beta (Homo sapiens, UniProt P49841);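 note: value comes from a broad kinome profiling panel, with GSK3B as the panel member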
Sequence of Glycogen synthase kinase-3 beta (P49841 whole entry): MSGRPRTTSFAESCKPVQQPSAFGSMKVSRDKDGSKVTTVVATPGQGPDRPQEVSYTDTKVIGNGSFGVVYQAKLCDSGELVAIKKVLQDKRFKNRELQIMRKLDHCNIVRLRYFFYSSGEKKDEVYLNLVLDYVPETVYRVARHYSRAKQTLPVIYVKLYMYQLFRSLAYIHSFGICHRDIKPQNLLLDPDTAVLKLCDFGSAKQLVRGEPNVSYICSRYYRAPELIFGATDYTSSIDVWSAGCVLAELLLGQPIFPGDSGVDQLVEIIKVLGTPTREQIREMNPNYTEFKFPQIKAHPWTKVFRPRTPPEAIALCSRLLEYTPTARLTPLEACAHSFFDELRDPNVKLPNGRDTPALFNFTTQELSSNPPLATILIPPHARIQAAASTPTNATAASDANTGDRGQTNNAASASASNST

[4] = molecular target: Serine/threonine-protein kinase Nek2 (Homo sapiens, UniProt P51955)
Sequence of Serine/threonine-protein kinase Nek2 (P51955 whole entry): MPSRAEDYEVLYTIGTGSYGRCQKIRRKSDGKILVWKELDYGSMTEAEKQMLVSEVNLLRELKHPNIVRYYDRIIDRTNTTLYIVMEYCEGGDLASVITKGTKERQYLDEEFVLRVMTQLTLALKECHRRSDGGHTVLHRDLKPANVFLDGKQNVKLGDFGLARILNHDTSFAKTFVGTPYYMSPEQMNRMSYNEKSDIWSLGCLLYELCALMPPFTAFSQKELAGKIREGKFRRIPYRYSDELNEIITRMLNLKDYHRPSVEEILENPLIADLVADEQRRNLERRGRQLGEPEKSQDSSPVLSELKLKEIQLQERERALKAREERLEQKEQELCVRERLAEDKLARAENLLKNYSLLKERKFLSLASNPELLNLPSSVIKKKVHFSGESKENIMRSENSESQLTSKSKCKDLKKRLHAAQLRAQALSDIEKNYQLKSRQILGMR

[5] = molecular target: Homeodomain-interacting protein kinase 2 (Homo sapiens, UniProt Q9H2X6);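 note: measured within a kinome-wide kinase profiling panel, HIPK2 being one panel member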
[6] = molecular target: cAMP-dependent protein kinase catalytic subunit alpha (Homo sapiens, UniProt P17612)
[7] = molecular target: Serine/threonine-protein kinase D3 (Homo sapiens, UniProt O94806);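 note: determined within a kinase panel screen, with PRKCN as the panel member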
[8] = molecular target: Cyclin-dependent kinase 2 (Homo sapiens, UniProt P24941);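 note: CDK2 measured as one member of a broad kinome profiling panel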
Misshapen-like kinase 1 = Misshapen-like kinase 1 (Homo sapiens, UniProt Q8N4C8);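 note: kinome panel screen with MINK as the panel member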
[9] = molecular target: Lymphokine-activated killer T-cell-originated protein kinase (Homo sapiens, UniProt Q96KB5);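 note: value comes from a kinase panel screen in which TOPK was one of the panel members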
[10] = molecular target: Serine/threonine-protein kinase TAO1 (Homo sapiens, UniProt Q7L7X3)
Sequence of Serine/threonine-protein kinase TAO1 (Q7L7X3 whole entry): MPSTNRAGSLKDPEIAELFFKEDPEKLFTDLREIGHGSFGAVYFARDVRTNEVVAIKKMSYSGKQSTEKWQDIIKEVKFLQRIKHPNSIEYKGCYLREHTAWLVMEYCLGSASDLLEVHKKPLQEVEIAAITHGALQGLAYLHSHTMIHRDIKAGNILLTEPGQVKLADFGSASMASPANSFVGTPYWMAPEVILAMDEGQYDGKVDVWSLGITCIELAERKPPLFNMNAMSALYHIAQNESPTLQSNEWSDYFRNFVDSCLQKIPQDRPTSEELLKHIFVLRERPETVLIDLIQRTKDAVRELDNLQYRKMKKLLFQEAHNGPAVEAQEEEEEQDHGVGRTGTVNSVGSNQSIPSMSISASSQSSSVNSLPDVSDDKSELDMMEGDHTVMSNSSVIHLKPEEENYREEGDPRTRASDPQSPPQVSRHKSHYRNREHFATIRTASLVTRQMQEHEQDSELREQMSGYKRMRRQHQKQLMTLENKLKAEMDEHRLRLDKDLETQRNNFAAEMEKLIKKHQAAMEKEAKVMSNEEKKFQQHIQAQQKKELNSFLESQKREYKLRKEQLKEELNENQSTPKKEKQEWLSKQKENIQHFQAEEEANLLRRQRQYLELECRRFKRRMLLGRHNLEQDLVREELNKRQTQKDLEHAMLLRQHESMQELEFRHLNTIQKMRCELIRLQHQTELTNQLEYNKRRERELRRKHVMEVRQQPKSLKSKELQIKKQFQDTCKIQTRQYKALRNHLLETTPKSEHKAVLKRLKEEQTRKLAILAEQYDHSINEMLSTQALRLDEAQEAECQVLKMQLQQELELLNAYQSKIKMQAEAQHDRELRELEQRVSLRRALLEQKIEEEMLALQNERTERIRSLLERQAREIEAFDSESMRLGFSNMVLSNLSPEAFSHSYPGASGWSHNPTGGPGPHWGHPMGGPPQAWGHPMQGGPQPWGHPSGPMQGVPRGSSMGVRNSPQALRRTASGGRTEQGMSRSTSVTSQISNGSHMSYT

[11] = molecular target: Protein kinase C iota type (Homo sapiens, UniProt P41743);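 note: measured within a kinome-wide kinase panel, PRKCI as panel member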
Sequence of Protein kinase C iota type (P41743 whole entry): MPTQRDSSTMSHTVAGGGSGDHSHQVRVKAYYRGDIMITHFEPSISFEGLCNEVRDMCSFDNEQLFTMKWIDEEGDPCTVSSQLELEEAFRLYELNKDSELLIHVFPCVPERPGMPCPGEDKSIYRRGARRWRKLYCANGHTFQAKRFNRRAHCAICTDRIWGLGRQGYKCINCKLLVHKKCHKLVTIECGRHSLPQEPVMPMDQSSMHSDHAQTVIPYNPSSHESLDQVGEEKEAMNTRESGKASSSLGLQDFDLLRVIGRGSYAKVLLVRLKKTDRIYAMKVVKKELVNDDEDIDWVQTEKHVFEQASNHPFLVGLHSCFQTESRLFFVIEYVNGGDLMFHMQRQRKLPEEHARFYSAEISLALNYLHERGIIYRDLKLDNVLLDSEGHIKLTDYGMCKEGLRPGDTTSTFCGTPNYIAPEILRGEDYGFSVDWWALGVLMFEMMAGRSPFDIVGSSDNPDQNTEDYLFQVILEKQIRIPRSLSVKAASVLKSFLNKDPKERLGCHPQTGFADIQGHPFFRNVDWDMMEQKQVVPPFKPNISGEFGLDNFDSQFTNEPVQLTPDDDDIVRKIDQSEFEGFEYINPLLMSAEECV

[12] = molecular target: 5'-AMP-activated protein kinase catalytic subunit alpha-1 (Homo sapiens, UniProt Q13131)
[13] = molecular target: Calcium/calmodulin-dependent protein kinase type 1 (Homo sapiens, UniProt Q14012)
[14] = molecular target: Phosphorylase b kinase gamma catalytic chain, liver/testis isoform (Homo sapiens, UniProt P15735);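 note: PHKG2 measured as one member of a kinome-wide kinase panel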
Sequence of Phosphorylase b kinase gamma catalytic chain, liver/testis isoform (P15735 whole entry, canonical isoform): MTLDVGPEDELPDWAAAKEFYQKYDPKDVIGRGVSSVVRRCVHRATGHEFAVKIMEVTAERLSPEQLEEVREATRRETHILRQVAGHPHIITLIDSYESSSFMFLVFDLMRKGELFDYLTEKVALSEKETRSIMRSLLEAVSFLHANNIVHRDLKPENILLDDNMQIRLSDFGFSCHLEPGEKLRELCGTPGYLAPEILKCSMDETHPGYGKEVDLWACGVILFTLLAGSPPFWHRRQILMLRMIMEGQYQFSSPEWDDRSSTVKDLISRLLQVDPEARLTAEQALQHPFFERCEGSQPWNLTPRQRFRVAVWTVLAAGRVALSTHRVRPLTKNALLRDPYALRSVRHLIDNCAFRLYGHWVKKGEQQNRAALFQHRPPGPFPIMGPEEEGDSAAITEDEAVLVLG

[15] = molecular target: Tyrosine-protein kinase Srms (Homo sapiens, UniProt Q9H3Y6);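 note: SRMS measured as one member of a kinome-wide kinase profiling panel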
[16] = molecular target: Non-receptor tyrosine-protein kinase TYK2 (Homo sapiens, UniProt P29597)
Sequence of Non-receptor tyrosine-protein kinase TYK2 (P29597 whole entry): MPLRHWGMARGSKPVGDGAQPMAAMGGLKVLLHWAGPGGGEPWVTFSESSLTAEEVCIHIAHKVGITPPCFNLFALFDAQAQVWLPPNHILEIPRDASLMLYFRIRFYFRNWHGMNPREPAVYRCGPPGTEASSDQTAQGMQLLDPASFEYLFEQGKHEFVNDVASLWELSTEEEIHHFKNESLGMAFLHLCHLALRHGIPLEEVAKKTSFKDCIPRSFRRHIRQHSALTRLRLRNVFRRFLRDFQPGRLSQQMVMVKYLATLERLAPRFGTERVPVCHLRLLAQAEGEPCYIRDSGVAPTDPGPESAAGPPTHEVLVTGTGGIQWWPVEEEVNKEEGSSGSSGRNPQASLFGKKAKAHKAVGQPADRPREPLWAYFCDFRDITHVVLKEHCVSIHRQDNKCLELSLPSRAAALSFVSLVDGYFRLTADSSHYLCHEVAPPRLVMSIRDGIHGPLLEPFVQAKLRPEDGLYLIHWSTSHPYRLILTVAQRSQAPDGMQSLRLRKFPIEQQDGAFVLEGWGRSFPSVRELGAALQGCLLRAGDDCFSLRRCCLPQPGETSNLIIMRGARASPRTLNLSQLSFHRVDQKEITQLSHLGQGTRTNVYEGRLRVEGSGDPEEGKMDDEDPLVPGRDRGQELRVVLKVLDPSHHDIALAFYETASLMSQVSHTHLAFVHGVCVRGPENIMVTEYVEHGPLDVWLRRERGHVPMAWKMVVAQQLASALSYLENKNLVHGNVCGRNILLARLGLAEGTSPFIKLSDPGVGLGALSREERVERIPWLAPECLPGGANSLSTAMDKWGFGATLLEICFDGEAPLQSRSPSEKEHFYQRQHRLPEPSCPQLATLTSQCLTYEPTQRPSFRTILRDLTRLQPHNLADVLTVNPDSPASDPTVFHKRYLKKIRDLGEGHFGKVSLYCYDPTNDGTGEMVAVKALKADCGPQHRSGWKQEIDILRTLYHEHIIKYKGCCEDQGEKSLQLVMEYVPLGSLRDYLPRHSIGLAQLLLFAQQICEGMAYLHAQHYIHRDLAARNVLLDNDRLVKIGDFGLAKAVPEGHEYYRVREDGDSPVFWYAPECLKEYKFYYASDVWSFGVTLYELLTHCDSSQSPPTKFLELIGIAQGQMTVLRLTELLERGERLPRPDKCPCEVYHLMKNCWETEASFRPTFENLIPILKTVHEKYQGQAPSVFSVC

[17] = molecular target: Serine/threonine-protein kinase Nek4 (Homo sapiens, UniProt P51957)
Sequence of Serine/threonine-protein kinase Nek4 (P51957 whole entry): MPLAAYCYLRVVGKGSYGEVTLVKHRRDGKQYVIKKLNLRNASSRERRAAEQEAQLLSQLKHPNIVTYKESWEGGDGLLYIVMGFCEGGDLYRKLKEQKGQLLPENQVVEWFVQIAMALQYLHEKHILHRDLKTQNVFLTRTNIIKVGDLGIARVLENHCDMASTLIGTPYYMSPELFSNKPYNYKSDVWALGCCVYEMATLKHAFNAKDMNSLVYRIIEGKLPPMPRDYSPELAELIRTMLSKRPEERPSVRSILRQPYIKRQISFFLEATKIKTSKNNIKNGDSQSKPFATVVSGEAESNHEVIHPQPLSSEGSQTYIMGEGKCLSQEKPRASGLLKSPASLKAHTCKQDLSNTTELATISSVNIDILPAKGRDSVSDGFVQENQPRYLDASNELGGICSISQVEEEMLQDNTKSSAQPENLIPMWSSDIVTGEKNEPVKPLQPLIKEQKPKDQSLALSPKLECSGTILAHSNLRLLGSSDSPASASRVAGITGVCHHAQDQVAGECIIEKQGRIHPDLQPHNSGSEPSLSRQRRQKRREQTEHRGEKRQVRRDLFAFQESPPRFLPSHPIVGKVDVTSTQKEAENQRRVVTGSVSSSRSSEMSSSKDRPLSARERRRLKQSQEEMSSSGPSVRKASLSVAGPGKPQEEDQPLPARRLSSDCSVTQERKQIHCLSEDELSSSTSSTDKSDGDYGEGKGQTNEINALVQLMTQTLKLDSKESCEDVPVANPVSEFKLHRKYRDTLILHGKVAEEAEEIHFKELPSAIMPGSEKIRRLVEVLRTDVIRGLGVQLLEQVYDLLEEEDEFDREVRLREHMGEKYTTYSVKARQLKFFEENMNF

Protein RecA = molecular target: T1, Protein RecA (Mycobacterium tuberculosis, UniProt P9WHJ3); assay: Fluorescence Cell-Free Homogeneous Dose Retest to Identify Inhibitors of RecA-Intein Splicing Activity. [Related pubchem assays (depositor defined):AID2097, AID2223, AID489010, AID492950]
T1 sequence (P9WHJ3 whole entry): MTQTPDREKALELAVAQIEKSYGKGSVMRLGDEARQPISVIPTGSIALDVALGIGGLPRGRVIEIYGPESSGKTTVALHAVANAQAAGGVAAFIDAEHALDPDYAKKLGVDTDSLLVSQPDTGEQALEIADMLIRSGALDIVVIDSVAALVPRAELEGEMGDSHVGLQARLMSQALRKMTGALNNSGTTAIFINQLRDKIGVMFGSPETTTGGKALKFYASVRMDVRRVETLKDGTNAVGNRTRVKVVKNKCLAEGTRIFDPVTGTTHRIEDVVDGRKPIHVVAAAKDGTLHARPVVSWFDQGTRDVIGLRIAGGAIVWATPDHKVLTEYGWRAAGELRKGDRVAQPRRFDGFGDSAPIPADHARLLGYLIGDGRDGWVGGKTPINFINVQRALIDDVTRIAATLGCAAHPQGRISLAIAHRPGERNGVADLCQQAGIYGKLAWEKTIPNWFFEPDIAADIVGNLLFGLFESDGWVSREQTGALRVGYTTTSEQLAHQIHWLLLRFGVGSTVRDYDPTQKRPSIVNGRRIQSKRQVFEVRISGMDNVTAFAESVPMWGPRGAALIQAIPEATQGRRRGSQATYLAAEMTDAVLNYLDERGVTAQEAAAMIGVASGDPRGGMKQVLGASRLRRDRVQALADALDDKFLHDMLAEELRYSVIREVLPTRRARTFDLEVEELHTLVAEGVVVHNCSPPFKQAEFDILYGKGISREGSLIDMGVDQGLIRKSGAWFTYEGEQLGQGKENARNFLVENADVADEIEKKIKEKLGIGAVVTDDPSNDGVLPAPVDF

SMILES	Ki [1]	Ki [2]	Ki [3]	Ki [4]	Ki [5]	Ki [6]	Ki [7]	Ki [8]	Ki (Misshapen-like kinase 1)	Ki [9]	Ki [10]	Ki [11]	Ki [12]	Ki [13]	Ki [14]	Ki [15]	Ki [16]	Ki [17]	EC50 (Protein RecA)
Cn1cncc1C(OCc1c(-c2ccc(OC(F)(F)F)cc2)cc(C#N)c(=O)n1C)c1ccc(C#N)cc1 (centres undefined)	> 2 µM (inactive)	> 7.94 µM (inactive)	2.51 µM (active)	> 10 µM (inactive)	> 3.16 µM (inactive)	> 7.94 µM (inactive)	> 10 µM (inactive)	> 7.94 µM (inactive)	> 7.94 µM (inactive)	> 10 µM (inactive)	3.98 µM (active)	> 5.01 µM (inactive)	> 1.58 µM (inactive)	> 5.01 µM (inactive)	> 5.01 µM (inactive)	> 1.58 µM (inactive)	> 2 µM (inactive)	> 6.31 µM (inactive)	
CCc1ccc(S(=O)(=O)/N=C2\C=C(NS(=O)(=O)c3ccccc3)C(=O)c3ccccc32)cc1																			3.08 µM (active)
